pKi: −log10 of the molar value. Where two headings read alike, the source gives them in different places. Blank lines part the entries; values can stand above or below the compound they belong to.
What was measured:
Rat microsome stability = type: in vitro ADME; conditions: rat microsomes, read-out: Rat microsome T1/2
[1] = Rat PK (0.05 mg/kg, iv), plasma and brain levels; type: in vivo; conditions: for Free B/P Ratio: free brain concentration divided by free plasma concentration
h-5-HT2B receptor = target: T1, h-5-HT2B receptor (Homo sapiens, UniProt P41595); assay: 5-HT2B receptor binding assay ([125I]-DOI displacement, CHO-K1 membranes)
T1 construct: purchased Perkin Elmer ES-314-M400UA; host or cells: CHO-K1
Protocol: (§1) Cells from stable clonal cell lines expressing the corresponding receptor (5-HT6, 5-HT2A or 5-HT2B receptors) were washed with PBS with 0.02% EDTA. The cells were collected by centrifugation at 500 g for 10 min. at 4° C., washed with PBS and centrifuged (500 g, 10 min. 4° C.). The pellets were stored at −80° C. until use. For membrane preparation, the thawed cell pellet was resuspended in ice-cold sucrose buffer (0.25 M sucrose, 10 mM Hepes (pH 7.4), 1 mM Phenylmethylsulfonyl fluoride (PMSF) in DMSO, […] Pepstatin-A, 3 mM EDTA, 0.025% Bacitracin) and homogenized with a Branson Sonifier W-250 (Settings: Timer 4; Output Control 3; Duty Cycle constant; 2 to 3 cycles). Cell disruption was checked with the aid of a microscope. Remaining unbroken cells were pelleted at 1,000 g for 10 min. at 4° C. The sucrose buffer supernatant was then centrifuged at 60,000 g for 1 h at 4° C. (Beckman Ultrazentrifuge XL 80). […] Protein concentration was determined (BCA-Kit; Pierce) and aliquots stored at −80° C. or in liquid nitrogen for long-term storage.
(§2) All receptor binding experiments were carried out in the corresponding assay buffer in a total volume of 200 μl in the presence of various concentrations of test compound (10^−5 M to 10^−9 M, tenfold serial dilution, duplicate determinations). […] Radioactivity was measured in a Microbeta Trilux two hours after the addition of the scintillation mixture. […]

h-5-HT2A receptor = target: T2, h-5-HT2A receptor (Homo sapiens, UniProt P28223); assay: 5-HT2A receptor binding assay ([125I]-DOI displacement, CHO-K1 membranes); conditions: for Selectivity for 5-HT6 v. 5-HT2A: ratio of human 5-HT2A Ki to human 5-HT6 Ki
T2 construct: purchased Perkin Elmer ES-313-M400UA; host or cells: CHO-K1
Protocol: Cells from stable clonal cell lines expressing the corresponding receptor (5-HT6, 5-HT2A or 5-HT2B receptors) were washed with PBS with 0.02% EDTA. The cells were collected by centrifugation at 500 g for 10 min. at 4° C., washed with PBS and centrifuged (500 g, 10 min. 4° C.). The pellets were stored at −80° C. until use. For membrane preparation, the thawed cell pellet was resuspended in ice-cold sucrose buffer (0.25 M sucrose, 10 mM Hepes (pH 7.4), 1 mM Phenylmethylsulfonyl fluoride (PMSF) in DMSO, […] Pepstatin-A, 3 mM EDTA, 0.025% Bacitracin) and homogenized with a Branson Sonifier W-250 (Settings: Timer 4; Output Control 3; Duty Cycle constant; 2 to 3 cycles). Cell disruption was checked with the aid of a microscope. Remaining unbroken cells were pelleted at 1,000 g for 10 min. at 4° C. The sucrose buffer supernatant was then centrifuged at 60,000 g for 1 h at 4° C. (Beckman Ultrazentrifuge XL 80). The pellet was resuspended in 30 ml ice-cold Tris buffer (20 mM TRIS (pH 7.4), […] Pepstatin A, 0.1 mM PMSF, 3 mM EDTA) by pipetting through a 10 ml serological pipet and centrifuged for 1 h at 4° C. at 60,000 g. A final resuspension was performed in a small volume of ice-cold Tris buffer (see above) by pressing through a serological pipet followed by ultrasonic treatment with a Branson Sonifier W-250 (Settings: Timer 1; Output Control 3; Duty Cycle constant; 1 cycle). Protein concentration was determined (BCA-Kit; Pierce) and aliquots stored at −80° C. or in liquid nitrogen for long-term storage.
All receptor binding experiments were carried out in the corresponding assay buffer in a total volume of 200 μl in the presence of various concentrations of test compound (10^−5 M to 10^−9 M, tenfold serial dilution, duplicate determinations). The assays were terminated by filtration on polyethylenimine (PEI 0.1% or 0.3%) presoaked Packard Unifilter Plates (GF/C or GF/B) with a Tomtec MachIII U 96well-plate harvester. After the plates had been dried for 2 h at 55° C. in a drying chamber scintillation cocktail (BetaPlate Scint; PerkinElmer) was added. Radioactivity was measured in a Microbeta Trilux two hours after the addition of the scintillation mixture. Data derived from liquid scintillation counting were analyzed by iterative non-linear regression analysis with the use of the Statistical Analysis System (SAS): a program similar to “LIGAND” as described by Munson and Rodbard (Analytical Biochemistry 107, 220-239 (1980).
CHO-K1 cell membranes expressing h-5-HT2A receptor (Perkin Elmer ES-313-M400UA) were thawed, diluted in assay buffer (50 mM Tris-HCl, 5 mM MgCl2, 1 mM EGTA, pH 7.4) to a final membrane protein concentration of 25 μg/ml and homogenized by gentle vortexing. For the competition binding studies; 20 μl of varying concentrations of test compounds in assay buffer (or 20 μl of assay buffer), 80 μl of 0.1 nM [^125I]—R—O-DOI (2,5-dimethoxy-4-iodo-amphetamine) (Perkin Elmer NEX-255) were incubated with 100 μl of homogenized membranes (total volume 200 μl). Non-specific binding was determined in the presence of 10 μM (±)-DOI (Sigma D-101). After a 1 hr incubation at room temperature, the binding reaction was harvested (Tomtec Mach III U Harvester) through 96-well GF/C filter plates (Perkin Elmer) presoaked for 1 hr with 20 μl per well of 0.3% polyethylene-imine (PEI). Harvested plates were washed twice with ice-cold assay buffer and dried prior to addition of 35 μl scintillator (BetaplateScint, Perkin Elmer). The radioactivity was determined by liquid scintillation spectrometry in a MicroBeta (Perkin Elmer) plate counter.
Data derived from liquid scintillation counting were analyzed by iterative non-linear regression analysis with the use of the Statistical Analysis System (SAS): a program similar to “LIGAND” as described by Munson and Rodbard (Anal. Biochem. 1980, 107, 220-239). Fitting was performed according to formulae described by Feldman (Anal. Biochem. 1972, 48, 317-338). […]

h-5-HT6 receptor = target: T3, h-5-HT6 receptor (Homo sapiens, UniProt P50406); assay: 5-HT6 receptor binding assay ([3H]-LSD displacement, HEK293 membranes)
T3 construct: expressed in transfected cells
Protocol: as §1, with “The” for “Cells from stable clonal cell lines expressing the corresponding receptor (5-HT6, 5-HT2A or 5-HT2B receptors) were washed with PBS with 0.02% EDTA. The”, “C.” for “C. The sucrose buffer supernatant was then centrifuged at 60,000 g for 1 h at 4° C. (Beckman Ultrazentrifuge XL 80).”
as §2
Data derived from liquid scintillation counting were analyzed by iterative non-linear regression analysis with the use of the Statistical Analysis System (SAS): a program similar to “LIGAND” as described by Munson and Rodbard (Anal. Biochem. 1980, 107, 220-239). […]

[2] = target: 78 targets (CEREP) other than the 5-HT6 receptor; assay: CEREP panel of 78 targets; type: binding; conditions: all but the 5-HT2B and 5-HT2A receptors, read-out: Ki at ancillary targets
Rat 5-HT6 = Rat 5-HT6 (Rattus norvegicus, UniProt P31388); assay: Rat 5-HT6 binding
5-HT2a = 5-HT2a (Homo sapiens, UniProt P28223); conditions: background statement on the known PET ligand; cited from earlier work
5-HT2a, sequence (P28223 whole entry): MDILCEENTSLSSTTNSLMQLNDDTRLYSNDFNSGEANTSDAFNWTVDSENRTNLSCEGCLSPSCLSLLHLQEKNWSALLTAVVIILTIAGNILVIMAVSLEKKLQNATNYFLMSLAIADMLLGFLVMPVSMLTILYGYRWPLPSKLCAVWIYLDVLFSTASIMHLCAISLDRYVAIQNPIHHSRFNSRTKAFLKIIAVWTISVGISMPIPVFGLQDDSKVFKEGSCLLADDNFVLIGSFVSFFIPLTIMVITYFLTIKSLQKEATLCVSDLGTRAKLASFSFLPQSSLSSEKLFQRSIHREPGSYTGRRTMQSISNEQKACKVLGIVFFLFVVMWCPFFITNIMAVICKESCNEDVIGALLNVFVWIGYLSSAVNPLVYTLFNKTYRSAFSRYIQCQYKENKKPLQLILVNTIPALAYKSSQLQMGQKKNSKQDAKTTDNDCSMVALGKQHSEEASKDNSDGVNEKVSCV

T2 sequence (P28223 whole entry): as above
T1 sequence (P41595 whole entry): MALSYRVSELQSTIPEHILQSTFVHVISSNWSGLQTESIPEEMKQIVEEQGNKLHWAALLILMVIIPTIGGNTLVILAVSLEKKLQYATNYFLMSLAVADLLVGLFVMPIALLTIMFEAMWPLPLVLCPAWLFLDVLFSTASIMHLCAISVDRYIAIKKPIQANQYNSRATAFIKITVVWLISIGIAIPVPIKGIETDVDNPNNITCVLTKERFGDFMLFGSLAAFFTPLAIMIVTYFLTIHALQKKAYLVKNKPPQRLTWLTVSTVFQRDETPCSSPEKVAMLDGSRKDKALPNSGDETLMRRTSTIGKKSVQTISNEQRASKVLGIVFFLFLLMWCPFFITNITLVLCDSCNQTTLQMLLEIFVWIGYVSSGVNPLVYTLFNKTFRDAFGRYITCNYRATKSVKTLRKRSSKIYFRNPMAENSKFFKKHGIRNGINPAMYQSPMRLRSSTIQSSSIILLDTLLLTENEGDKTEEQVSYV
T3 sequence (P50406 whole entry): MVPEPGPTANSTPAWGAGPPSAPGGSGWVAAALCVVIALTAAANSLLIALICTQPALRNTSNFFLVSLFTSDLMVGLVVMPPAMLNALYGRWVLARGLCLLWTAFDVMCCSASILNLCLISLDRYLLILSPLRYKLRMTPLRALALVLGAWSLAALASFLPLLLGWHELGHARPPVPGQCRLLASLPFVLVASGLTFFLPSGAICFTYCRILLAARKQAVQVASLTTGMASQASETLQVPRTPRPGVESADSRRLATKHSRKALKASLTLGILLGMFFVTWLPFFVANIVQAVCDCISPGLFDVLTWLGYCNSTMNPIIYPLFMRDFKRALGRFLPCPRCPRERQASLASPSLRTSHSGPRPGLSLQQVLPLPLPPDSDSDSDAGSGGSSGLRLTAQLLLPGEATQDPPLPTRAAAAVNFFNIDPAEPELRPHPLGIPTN
Rat 5-HT6, sequence (P31388 whole entry): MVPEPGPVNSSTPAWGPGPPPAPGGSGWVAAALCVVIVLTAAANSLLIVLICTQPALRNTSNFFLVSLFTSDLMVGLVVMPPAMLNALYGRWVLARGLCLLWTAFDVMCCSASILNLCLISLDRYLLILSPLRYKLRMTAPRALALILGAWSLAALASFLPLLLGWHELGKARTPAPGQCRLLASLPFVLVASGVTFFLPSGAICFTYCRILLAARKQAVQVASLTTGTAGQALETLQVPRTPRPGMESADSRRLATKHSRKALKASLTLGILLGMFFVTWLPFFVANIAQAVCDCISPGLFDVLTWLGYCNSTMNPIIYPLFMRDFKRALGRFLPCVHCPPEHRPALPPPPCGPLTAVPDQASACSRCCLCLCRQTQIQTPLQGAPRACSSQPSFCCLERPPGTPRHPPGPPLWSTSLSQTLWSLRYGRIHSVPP

- half-life (Rat microsome stability): 1.73 h
- Free [brain] ([1]; 3 min after dose): 21.5 ng/g
- Plasma Conc. ([1]; 3 min after dose): 104.5 ng/mL
- Free B/P Ratio ([1]; 3 min after dose): 0.21
- Free [brain] ([1]; 5 min after dose): 23.1 ng/g
- Plasma Conc. ([1]; 5 min after dose): 83.5 ng/mL
- Free B/P Ratio ([1]; 5 min after dose): 0.28
- pKi (h-5-HT2B receptor): 6.84
- selectivity for 5-HT6 over 5-HT2B (h-5-HT2B receptor): 654.5 fold
- pKi (h-5-HT2A receptor): 6.91
- selectivity for 5-HT6 over 5-HT2A (h-5-HT2A receptor): 559 fold
- Selectivity for 5-HT6 v. 5-HT2A (h-5-HT2A receptor): 559 x
- pKi (h-5-HT6 receptor): 9.66
- pKi [2]: < 6.00
Compound: CN1CCC(c2cccc3cc(S(=O)(=O)c4ccccn4)cnc23)CC1 [Example 1, 8-(1-methylpiperidin-4-yl)-3-(pyridin-2-ylsulfonyl)quinoline]

Compound: [3H]C([3H])([3H])N1CCC(c2cccc3cc(S(=O)(=O)c4ccccn4)cnc23)CC1 [Example 2, 8-(1-([^3H]methyl)piperidin-4-yl)-3-(pyridin-2-ylsulfonyl)quinoline]
- F. Cortex/Cer. (5 min after dose): 0.9
- Hippo./Cer. (5 min after dose): 1.06
- Striatum/Cer. (5 min after dose): 0.81
- F. Cortex/Cer. (40 min after dose): 1.20
- Hippo./Cer. (40 min after dose): 1.07
- Striatum/Cer. (40 min after dose): 1.31

Compound: CN1CCN(c2cccc3cc(S(=O)(=O)c4cccc(F)c4)cnc23)CC1 [GSK-215083, reference compound]
- half-life (Rat microsome stability): 1.04 h
- pKi (Rat 5-HT6): 9.80
- pKi (h-5-HT2A receptor): 9.40
- selectivity for 5-HT6 over 5-HT2A (h-5-HT2A receptor): 1.16 fold
- Selectivity for 5-HT6 v. 5-HT2A (h-5-HT2A receptor): 1.16 x
- pKi (h-5-HT6 receptor): 9.47

Compound: CN1CCN(c2cccc3cc(S(=O)(=O)c4cccc(F)c4)cnc23)CC1 [[^11C]GSK-215083]
- pKi (5-HT2a): 9.40

— patent US20130343993A1, “RADIOLABELED 5-HT6 LIGANDS” (AbbVie Inc., priority 2012, published 2013)
